The values that follow come from ChEMBL document CHEMBL2151022, “Combatting Drug-Resistant Bacteria with Gyrase and Topoisomerase IV Inhibitors: Patent Highlight” (ACS Med Chem Lett, 2012).

The target of this assay is DNA gyrase subunit B (Staphylococcus aureus, UniProt P0A0K8). The assay is described as follows: Inhibition of Staphylococcus aureus DNA gyrase Gyr B subunit by ATPase assay.

Bounds are passed on as bounds.

Sequence of DNA gyrase subunit B (P0A0K8 whole entry): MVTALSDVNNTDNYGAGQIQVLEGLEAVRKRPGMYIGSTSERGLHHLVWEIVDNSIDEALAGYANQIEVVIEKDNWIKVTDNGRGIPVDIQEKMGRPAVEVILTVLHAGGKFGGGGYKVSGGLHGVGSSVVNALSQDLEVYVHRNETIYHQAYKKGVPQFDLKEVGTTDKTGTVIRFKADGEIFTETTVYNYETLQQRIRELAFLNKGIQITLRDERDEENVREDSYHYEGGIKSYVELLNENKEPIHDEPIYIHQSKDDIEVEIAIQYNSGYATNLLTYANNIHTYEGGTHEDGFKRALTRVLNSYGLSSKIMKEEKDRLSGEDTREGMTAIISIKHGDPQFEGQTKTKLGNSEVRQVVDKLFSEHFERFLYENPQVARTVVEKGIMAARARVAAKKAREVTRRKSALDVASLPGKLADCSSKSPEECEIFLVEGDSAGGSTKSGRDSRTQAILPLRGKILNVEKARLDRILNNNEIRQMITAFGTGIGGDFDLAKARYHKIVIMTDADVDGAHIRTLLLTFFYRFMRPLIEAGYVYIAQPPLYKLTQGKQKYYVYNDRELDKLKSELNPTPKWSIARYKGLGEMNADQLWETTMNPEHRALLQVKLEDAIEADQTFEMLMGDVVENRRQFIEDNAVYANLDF

For `CCNC(=O)Nc1nc2cc(-c3cnc(C(C)(C)OP(=O)(O)O)nc3)c(F)c([C@H]3CCCO3)c2[nH]1`, the Ki (as a rule, a measure of affinity in units of concentration, obtained from inhibition or displacement) is less than 9 nM.
